Experimental data from patent publication US6706732B1, “Nasal preparation of guanidinoimino quinoline derivatives” (Takeda Chemical Industries, Ltd., priority 1999, dated 2004).

Experiment: Serum concentration of Compound B after nasal administration to rats
Type: in vivo, male SD rat
Conditions: rat
Method: A male SD rat (8 weeks old) was anesthetized with ether and each of the preparations of Formulation Examples 1 to 6 was given into the left nasal cavity. The dose of Compound B was 0.75 mg/kg (Formulation Example 1), 1.5 mg/kg (Formulation Example 2), 3.0 mg/kg (Formulation Example 3), 6.0 mg/kg (Formulation Example 4), 1.5 mg/kg (Formulation Example 5) and 3.0 mg/kg (Formulation Example 6). Each of the preparations of Formulation Examples 1 to 4 was taken as a portion of about 10 mg, which was filled in a polyethylene tube (INTRAMEDIC PE90, BECKTON DICKINSON) and the polyethylene tube was inserted into the nasal cavity, where it was sprayed with 2 cc of air. Each of the preparations of Formulation Examples 5 and 6 was given as a 20 μl aliquot via a micropipette (*EXCELMYDEGI* 8000, D-5, SANKO JUNYAKU). The preparation of Comparative 1 was given intravenously into a femoral vein of the rat (dose: 1 mg/kg).
After administration of the preparation, blood was taken at a certain interval via a tail vain and examined for the serum concentration of Compound B.

Row | in vivo absorption | SMILES
1 | rapid in vivo absorption | CS(=O)(=O)O.Cc1ccnc2c1C(=NNC(=N)N)CC(c1ccccc1Cl)C2 (single isomer, unassigned; (-)) [Compound B, (−)-7-(2-chlorophenyl)-5-guanidinoimino-4-methyl-5,6,7,8-tetrahydroquinoline methanesulfonate]

Experiment: not given
Conditions: not given

Row | SMILES | melting point
2 | Cc1ccnc2c1C(=NNC(=N)N)CC(c1cc(F)ccc1F)C2.Cl (centres unmarked) | 290 °C (dec.)
3 | CS(=O)(=O)O.Cc1ccnc2c1C(=NNC(=N)N)CC(c1cc(F)ccc1Cl)C2 (centres unmarked) [Compound I] | 206 to 209 °C
4 | CS(=O)(=O)O.Cc1ccnc2c1C(=NNC(=N)N)CC(c1cc(F)ccc1Cl)C2 (centres unmarked) [Compound H] | 209 to 212 °C
5 | Cc1ccnc2c1C(=NNC(=N)N)CC(c1cc(F)ccc1Cl)C2.Cl (centres unmarked) | 268 °C (dec.)
6 | Cc1ccnc2c1C(=NNC(=N)N)CC(c1ccccc1Cl)C2.Cl (centres unmarked) | 204 °C (dec.)
7 | CS(=O)(=O)O.Cc1ccnc2c1C(=NNC(=N)N)CC(c1ccccc1Cl)C2 (single isomer, unassigned; (-)) [Compound B, (−)-7-(2-chlorophenyl)-5-guanidinoimino-4-methyl-5,6,7,8-tetrahydroquinoline methanesulfonate] | 194 to 195 °C

Results, then the compound that gave them:

Row | melting point | SMILES
8 | 201 to 203 °C | Cc1cc(C)c2c(n1)CC(c1cc(F)ccc1C)CC2=NNC(=N)N.Cl (centres unmarked)
9 | 192 to 198 °C | Cc1ccc(F)cc1C1CC(=NNC(=N)N)c2c(C)ccnc2C1.Cl (centres unmarked) [Compound E]
10 | 202 to 205 °C | Cc1ccc(F)cc1C1CC(=NNC(=N)N)c2c(C)ccnc2C1.Cl (centres unmarked) [Compound C]
11 | 202 to 204 °C | CS(=O)(=O)O.Cc1ccc(F)cc1C1CC(=NNC(=N)N)c2c(C)ccnc2C1 (centres unmarked)
